Type in all cases: in vivo
Assay [1] relates to Spodoptera frugiperda. As to the kind of experiment: Insecticidal activity assay, corn leaf dip, 3rd instar larvae. As to conditions: liquid concentration 0.3 ppm, 48 h. On the procedure: (§1) The compound of the present invention was dissolved in acetone, and then diluted with water into liquids with gradients of different concentrations (ppm). Corn leaves were soaked in liquids of different concentrations for about 20 seconds, air-dried and then placed in petri dishes where 3rd instar Spodoptera frugiperda were placed, respectively; kale leaves were soaked in liquids of different concentrations for about 20 seconds, air-dried and then placed in petri dishes where 3rd instar Spodoptera frugiperda were placed, respectively; peanut leaves were soaked in liquids of different concentrations for about 20 seconds, air-dried and then placed in petri dishes where Tetranychus urticae (adult mite) and Aphis craccivora (adult aphid) were placed, respectively; water bamboo leaves were soaked in liquids of different concentrations for about 20 seconds, air-dried and then placed in petri dishes where 4th instar Chilo suppressalis were placed, respectively. Each petri dish was placed with 10 insects, covered and then stored at 25° C. in a constant temperature room. The number of dead insects were checked after 48 h. The dead insect rate was calculated by the formula: Death rate (%)=(Number of dead insects/Number of test insects)×100. Furthermore, the experiment was conducted in two replications.

Another assay concerns Spodoptera exigua. As to the kind of experiment: Insecticidal activity assay, kale leaf dip, 3rd instar larvae. Particulars: liquid concentration 0.3 ppm, 48 h.
The subject of a further assay is Aphis craccivora. As to the kind of experiment: Insecticidal activity assay, peanut leaf dip, adult aphid. As to conditions: liquid concentration 8.1 ppm, 48 h. On the procedure:
as §1

A further assay relates to Chilo suppressalis. As to the kind of experiment: Insecticidal activity assay, water bamboo leaf dip, 4th instar larvae. Particulars: liquid concentration 0.4 ppm, 48 h. On the procedure: as §1
The test system of another assay is Tetranychus urticae. As to the kind of experiment: Insecticidal activity assay, peanut leaf dip, adult mite. As to conditions: 48 h. On the procedure: as §1
The subject of another assay is Aphis gossypii. As to the kind of experiment: Assay of insecticidal activity of compositions (synergism), zucchini leaves, adult aphid. As to conditions: for pest or weed control at 5 µg/mL / pest or weed control at 1 µg/mL: in Cucurbita pepo, 48 h, read-out: Death rate by individual B; for pest or weed control at 5 µg/mL: B 5 ppm. The procedure: as §1
• Test targets: Spodoptera frugiperda (3rd instar) and Aphis gossypii (adult aphid)
Referring to the above-mentioned Insecticidal activity assay, when the test target was Aphis gossypii, the zucchini leaves were selected.
(§2) Different ratios within the selected ratio range were set for toxicity determination, and the optimal ratio was selected according to synergistic effects. When the synergistic effect >0, it indicated a synergistic effect; when the synergistic effect is close to 0, it indicated an addition effect; when the synergistic effect <0, it indicated an antagonistic effect.
(§3) [formula] • wherein, P1, P2—Death rate by each individual agent in a mixed formulation.

Assay [2] relates to Spodoptera frugiperda. As to the kind of experiment: Assay of insecticidal activity of compositions (synergism), 3rd instar. Particulars: A 0.1 ppm. The procedure: as §1
• Test targets: Spodoptera frugiperda (3rd instar) and Aphis gossypii (adult aphid) […]
as §2, §3

From patent US20260209189A1, “ISOXAZOLINE-SUBSTITUTED BENZAMIDE COMPOUND AND APPLICATION THEREOF” (priority 2022, published 2026) come the findings set out here.

SMILES strings stand for the structures.

Consider `COC(=O)C(C)NC(=O)c1ccc(C2=NOC(c3cc(Cl)cc(C(F)(F)F)c3)(C(F)(F)F)C2)cc1C` (mixture of isomers) [1 (2R)], for which the Death rate worked out at 100% in the assay on Spodoptera frugiperda [1]; 90% in the assay with Spodoptera exigua; 83% in the assay on Aphis craccivora; 100% in the assay with Chilo suppressalis; 83% with Tetranychus urticae (liquid concentration 8.1 ppm).

`COC(=O)[C@@H](C)NC(=O)c1ncc(C2=NOC(c3cc(Cl)c(Cl)c(C(F)(F)F)c3)(C(F)(F)F)C2)cc1C` (stereo partly drawn) [Compound 154 (2R)]: the Death rate in the assay with Spodoptera frugiperda [1] is 100%; in the assay on Spodoptera exigua, 77%; with Aphis craccivora, 93%; with Chilo suppressalis, 100%; in the assay on Tetranychus urticae (liquid concentration 0.9 ppm) it was 100%.

Consider `COC(=O)C(C)NC(=O)c1ccc(C2=NOC(c3cc(Cl)c(Cl)c(C(F)(F)F)c3)(C(F)(F)F)C2)cc1C(F)(F)F` (mixture of isomers) [147 (2R)], for which the Death rate with Spodoptera frugiperda [1], in the assay with Spodoptera exigua, in the assay with Aphis craccivora, in the assay with Chilo suppressalis and in the assay with Tetranychus urticae (liquid concentration 8.1 ppm) was 100% each time.

For the molecule `CC(C)=NOC(=O)[C@@H](C)NC(=O)c1ccc(C2=NOC(c3cc(Cl)c(Cl)c(C(F)(F)F)c3)(C(F)(F)F)C2)cc1C` (stereo partly drawn) [Compound 80 (2R)], the Death rate in the assay with Spodoptera frugiperda [1], in the assay with Spodoptera exigua, in the assay with Aphis craccivora, with Chilo suppressalis and in the assay with Tetranychus urticae (liquid concentration 8.1 ppm) was 100% in each case.

For the molecule `C[C@]1(COC(=O)C2CC2)[C@@H]2C[C@H](O)[C@@]3(C)Oc4cc(-c5cccnc5)oc(=O)c4[C@H](O)[C@@H]3[C@@]2(C)CC[C@@H]1OC(=O)C1CC1` [Afidopyropen, reference compound], the “Death rate by individual B” value in the assay on Aphis gossypii (B 1 ppm) worked out at 68%.

For the molecule `CNC(=O)c1cc(C#N)cc(C)c1NC(=O)c1cc(Br)nn1-c1ncccc1Cl` [Cyantraniliprole, reference compound], the pest or weed control at 5 µg/mL with Aphis gossypii came to 36%.

For the molecule `COC(=O)C(C)NC(=O)c1ccc(C2=NOC(c3cc(Cl)c(F)c(C(F)(F)F)c3)(C(F)(F)F)C2)cc1C` (mixture of isomers) [2 (2R)], the Death rate came out at 100% in the assay with Spodoptera frugiperda [1]; 90% in the assay on Spodoptera exigua; 90% in the assay on Aphis craccivora; 100% in the assay with Chilo suppressalis; 100% with Tetranychus urticae (liquid concentration 0.9 ppm).

For `COC(=O)C(C)NC(=O)c1ccc(C2=NOC(c3cc(Cl)c(F)c(C(F)(F)F)c3)(C(F)(F)F)C2)cc1C` [Compound 2 (5S, 2R)], the Death rate in the assay on Spodoptera frugiperda [1], in the assay with Spodoptera exigua, in the assay on Aphis craccivora, with Chilo suppressalis and in the assay on Tetranychus urticae (liquid concentration 0.9 ppm) was 100% in each case.

`COC(=O)CNC(=O)c1ccc(C2=NO[C@@](c3cc(Cl)c(Cl)c(C(F)(F)F)c3)(C(F)(F)F)C2)cc1C` [188 (5S)]: the Death rate in the assay with Spodoptera frugiperda [1], in the assay with Spodoptera exigua, in the assay on Aphis craccivora, in the assay with Chilo suppressalis and in the assay on Tetranychus urticae (liquid concentration 8.1 ppm) was 100% throughout.

`COC(=O)[C@@H](C)NC(=O)c1ccc(C2=NOC(c3cc(Cl)c(Cl)c(C(F)(F)F)c3)(C(F)(F)F)C2)cc1C` (stereo partly drawn) [Compound 3 (2R)]: the entries for the “Death rate by individual A” value in the assay with Spodoptera frugiperda [2] and in the assay on Aphis gossypii (A 0.1 ppm) were 72% and 38%, respectively. Moreover, the Death rate in the assay on Spodoptera frugiperda [1] is 100%; in the assay on Spodoptera exigua it was 77%; in the assay on Aphis craccivora, 93%; in the assay with Chilo suppressalis it was 100%; in the assay with Tetranychus urticae (liquid concentration 0.9 ppm), 100%.

In the case of `COC(=O)[C@@H](C)NC(=O)c1ccc(C2=NOC(c3cc(Cl)cc(Cl)c3)(C(F)(F)F)C2)cc1C` (some centres unmarked) [Control compound A, reference compound], the Death rate was found to be 70% in the assay with Spodoptera frugiperda [1]; 30% in the assay with Spodoptera exigua; 20% in the assay on Aphis craccivora; 40% in the assay with Chilo suppressalis; 25% in the assay on Tetranychus urticae (liquid concentration 8.1 ppm).

In the case of `CN/C(=N\[N+](=O)[O-])NCc1cnc(Cl)s1` [Clothianidin, reference compound], the pest or weed control at 5 µg/mL in the assay with Aphis gossypii is 42%.

Turning to `COC(=O)[C@@H](C)NC(=O)c1ccc(C2=NOC(c3cc(Cl)c(Cl)c(C(F)(F)F)c3)(C(F)(F)F)C2)cc1Cl` (stereo partly drawn) [Compound 144 (2R)], the Death rate with Spodoptera frugiperda [1], in the assay on Spodoptera exigua, with Aphis craccivora, in the assay on Chilo suppressalis and in the assay on Tetranychus urticae (liquid concentration 8.1 ppm) was 100% in each case.

For `O=[N+]([O-])NC1=NCCN1Cc1ccc(Cl)nc1` [Imidacloprid, reference compound], in the assay on Aphis gossypii (B 1 ppm), the pest or weed control at 1 µg/mL stood at 53%.

For `CCc1cc(C2=NOC(c3cc(Cl)c(Cl)c(C(F)(F)F)c3)(C(F)(F)F)C2)ccc1C(=O)NC(C)C(=O)OC` (mixture of isomers) [140 (2R)], the Death rate with Spodoptera frugiperda [1], with Spodoptera exigua, in the assay with Aphis craccivora, in the assay on Chilo suppressalis and with Tetranychus urticae (liquid concentration 8.1 ppm) was 100% each time.

`C/C(=N\C#N)N(C)Cc1ccc(Cl)nc1` [Acetamiprid, reference compound]: the pest or weed control at 1 µg/mL in the assay with Aphis gossypii (B 1 ppm) was determined as 52%.
